What was measured:
[1] = target: IRAK4 (Homo sapiens (Human), UniProt Q9NWZ3); assay: IRAK-4 AlphaScreen biochemical kinase assay; settings: 1 nM IRAK4, 1 mM ATP, 3.5 h at RT
Procedure, shortened: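 AlphaScreen read-out: streptavidin beads bind the biotinylated peptide and protein A beads bind the anti-phosphothreonine antibody, so energy transfer reports phosphorylation of the peptide. The kinase is human IRAK-4.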

[2] = system: IL-6 in A549 cells; assay: Cell-based IL-6 ELISA assay in IL-1beta stimulated A549 cells; settings: 2 ng/ml human IL-1beta overnight
Procedure, shortened: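 A549 cells (2.5×10^4/well, DMEM/10% FBS) pretreated 30 min at 37 C with compound, 10-point serial dilution from 10 uM, then stimulated overnight with 2 ng/ml human IL-1beta. Secreted IL-6 in supernatant quantified by human IL-6 ELISA.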

Chain of IRAK4 (Q9NWZ3 whole entry, species assumed): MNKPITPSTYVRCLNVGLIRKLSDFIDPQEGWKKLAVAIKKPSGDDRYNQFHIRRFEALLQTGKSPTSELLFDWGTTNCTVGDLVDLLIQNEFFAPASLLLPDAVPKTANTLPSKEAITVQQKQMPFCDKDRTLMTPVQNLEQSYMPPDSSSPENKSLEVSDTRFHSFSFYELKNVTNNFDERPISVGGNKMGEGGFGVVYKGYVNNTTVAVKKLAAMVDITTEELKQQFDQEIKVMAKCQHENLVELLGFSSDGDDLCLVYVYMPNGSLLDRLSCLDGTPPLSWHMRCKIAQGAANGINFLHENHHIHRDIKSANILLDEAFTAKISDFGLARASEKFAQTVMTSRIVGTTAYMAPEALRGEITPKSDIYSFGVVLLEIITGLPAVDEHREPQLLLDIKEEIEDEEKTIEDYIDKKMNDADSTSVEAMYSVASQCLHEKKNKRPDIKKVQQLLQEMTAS

Row | IC50 [1] [µM] | EC50 [2] [µM] | Compound
1 | 0.1 to 1 | 1 to 10 | CC(N)CNC(=O)c1cc(-c2cccc([C@H](C)N)n2)cc2c1cnn2-c1cccc(CO)n1 (stereo partly drawn) [Example 548, 6-(6-((S)-1-aminoethyl)pyridin-2-yl)-N-(2-aminopropyl)-1-(6-(hydroxymethyl)pyridin-2-yl)-1H-indazole-4-carboxamide]
2 | 1 to 10 | 1 to 10 | CCCC(O)c1cccc(-c2ccc3cnn(-c4cccc(CO)n4)c3c2)n1 (stereo not shown) [Example 550, 1-(6-(1-(6-(hydroxymethyl)pyridin-2-yl)-1H-indazol-6-yl)pyridin-2-yl)butan-1-ol]
